The results in this text go back to ChEMBL document CHEMBL5113507, “Discovery of potent ebola entry inhibitors with (3S,4aS,8aS)-2-(3-amino-2-hydroxypropyl) decahydroisoquinoline-3-carboxamide scaffold” (Eur J Med Chem, 2022).

The nature of data set [1]: Cytotoxicity against human Huh-7 cells assessed as reduction in cell viability by cellular ATP method. Format: toxicity, cell-based.

As to `CC(C)(C)NC(=O)[C@@H]1C[C@@H]2CCCC[C@@H]2CN1C[C@@H](O)[C@H](Cc1ccccc1)NC(=O)[C@H](CC(N)=O)NC(=O)c1ccc2ccccc2n1`, in the data set “cells”, the midpoint of inhibition, the IC50, lay at 10.5 µM.

Consider `CC(C)(C)NC(=O)[C@@H]1C[C@@H]2CCCC[C@@H]2CN1C[C@H](O)CNCCc1ccc(Cl)cc1`, for which the CC50 – broadly, the concentration giving 50% cytotoxicity – in data set [1] came out at 4.04 µM.

Take `CN(C)CCOc1ccc(/C(=C(/CCCl)c2ccccc2)c2ccccc2)cc1` [TOREMIFENE]: the IC50 – broadly, the point on the concentration scale where inhibition reaches its midpoint – in “cells” was found to be 0.17 µM. Also, the cytotoxic concentration (CC50) in data set [1] is 9.31 µM.
